# Experiments:
# [1] = format: in vivo; settings: piglets, oral PM 100 mg/kg
# Method: Neonatal pigs spontaneously delivered from sows were confirmed to be negative for TGEV by RT-qPCR and enzyme-linked immunosorbent assay. For the cytotoxicity and pharmacokinetic parameters of the PM, three piglets were orally administered PM (100 mg/kg), and the serum was collected by venipuncture at 0, 1, 2, 4, 6, 8, 10, 12, 16, and 24 h after oral administration of PM for cytotoxicity assays and pharmacokinetic parameter determination. For antiviral animal experiments, piglets were randomly separated into four groups: the mock group ([3]), TGEV group ([3]), TGEV-PM-therapy group ([3]), and TGEV-PM-prevention group ([3]). For the TGEV group, neonatal pigs were orally administered 1.245 × 10^8 PFU TGEV Miller for 24 h. In addition, piglets in the TGEV-PM therapy group were orally infected with 1.245 × 10^8 PFU TGEV Miller and then treated with PM (100 mg/kg). […] The body weights of all piglets were recorded, and anal swabs were collected every 12 h. […]
# Fig. S9. […] (A) The serum of piglets orally administered PM were collected at 1, 2, 4, 6, 8, 10, 12, 16 and 24 hours respectively and AST, CK and CREA level in those sera were measured by biochemical parameters. (B) PM concentrations at indicated times in piglets were determined by ICP-MS. […]
# APN = APN expression in HEK-293T cells (western blot); format: cell-based, human; settings: for APN level, western blot quantified by Image J, relative to no PM (=1): PM 10 mM
# Method: Fig. S6. PM degrades human and mouse-derived APN expression. (A and B) HEK-293T cells (A) and […] (B) were treated with PM (10 mM) for 8 h or 16 h respectively, APN expression was measured by western blot. All western blot results were calculated by Image J. All experiments were […]
# PM(10mM) - + - + PM(10mM) - + - + […]
# TGEV Miller = experiment: TGEV challenge of neonatal piglets, PM therapy and prevention; format: in vivo
# Method: Fig 10 Oral administration of PM reduces TGEV pathogenicity by autophagic degradation of APN in piglets. (A) Experimental schemes for testing therapeutic and prophylactic efficacy of PM treatment against TGEV challenge in four groups of piglets. (B) Viral shedding was measured by RT-qPCR every 12 h postinfection. (C) TGEV genome copy numbers of duodenum, jejunum, and ileum were detected by RT-qPCR, and APN, PIK3C3, P62, and TGEV N in the small intestine were determined by western blot from piglets sacrificed at 24 hpi. (D) IFA of TGEV N and APN in different segments of the small intestine from piglets sacrificed at 24 hpi. Scale bar: 50 µm. Results are presented as mean ± SD of data from three independent experiments. **, P ≤ 0.01; ***, P ≤ 0.001.
# Small intestinal tissues were collected, fixed for 24 h in 10% formalin, dehydrated according to the standard protocol, embedded in paraffin, and subjected to hematoxylin and eosin staining by standard procedures. For immunofluorescence analysis, Organoid monolayers or ST cells were fixed with 4% paraformaldehyde for 20 min and then permeabilized with 0.1% Triton X-100 (Beyotime, China, ST797) for 20 min at 37°C. Organoid monolayers or ST cells were blocked with 5% BSA (Biofroxx, Germany, 4240GR100) for 1 h and then labeled with primary antibodies overnight at 4°C. After rinsing, the sections were incubated with secondary antibodies for 1 h at room temperature. Next, 4’,6-diamidino-2-phenylindole (DAPI; Beyotime, China, C1006) was used to stain the nuclei. After washing, the organoid monolayers or ST cells were visualized using confocal laser-scanning microscopy (Zeiss LSM 900, Germany). Apical-out porcine intestinal organoids or small intestinal tissues were stained with primary and secondary antibodies and visualized using confocal laser-scanning microscopy (Zeiss LSM 900, Germany) according to the manufacturer’s protocol ([28]).
# Neonatal pigs spontaneously delivered from sows were confirmed to be negative for TGEV by RT-qPCR and enzyme-linked immunosorbent assay. For the cytotoxicity and pharmacokinetic parameters of the PM, three piglets were orally administered PM (100 mg/kg), and the serum was collected by venipuncture at 0, 1, 2, 4, 6, 8, 10, 12, 16, and 24 h after oral administration of PM for cytotoxicity assays and pharmacokinetic parameter determination. For antiviral animal experiments, piglets were randomly separated into four groups: the mock group ([3]), TGEV group ([3]), TGEV-PM-therapy group ([3]), and TGEV-PM-prevention group ([3]). For the TGEV group, neonatal pigs were orally administered 1.245 × 10^8 PFU TGEV Miller for 24 h. In addition, piglets in the TGEV-PM therapy group were orally infected with 1.245 × 10^8 PFU TGEV Miller and then treated with PM (100 mg/kg). For the TGEV-PM-prevention group, three neonatal pigs were orally pretreated with PM (100 mg/kg) for 24 h and subsequently inoculated with 1.245 × 10^8 PFU TGEV Miller for 24 h. The body weights of all piglets were recorded, and anal swabs were collected every 12 h. At 24 hpi, all pigs were euthanized, and intestinal tissues were collected for RT-qPCR, western blot, IFA, and pathological examination. All animals were handled in strict accordance with good animal practice according to the Animal Ethics Procedures and Guidelines of the People’s Republic of China, and the study was approved by The Animal Administration and Ethics Committee of Lanzhou Veterinary Research Institute, Chinese Academy of Agricultural Sciences (Permit No. LVRIAEC-2020-030).
# [2] = PM-therapy and PM-prevention groups vs control, 24 hpi, western blot
# [3] = oral PM 100 mg/kg every 12 h, TGEV Miller 1.245 × 10^8 PFU oral
structure (smiles),measurement,setting,value
"[K+].[K+].[O]=[Mo](=[O])([O-])[O-] [PM, potassium molybdate]",safety of the dose,[1],safe concentration
same,"aminotransferase (AST), creatine kinase (CK) and creatinine (CERA) levels",[1]; serum at 0-24 h,did not affect
same,"APN level, western blot quantified by Image J, relative to no PM (=1)",APN; 8 h,0.42
same,"APN level, western blot quantified by Image J, relative to no PM (=1)",APN; 16 h,0.23
same,human APN expression,APN; PM for 8 and 16 h,also decreased human and mouse-derived APN expression
same,APN expression and TGEV N protein expression in small intestine (IFA),TGEV Miller; 24 hpi,almost entirely inhibited
same,TGEV-induced villous atrophy of small intestinal segments (H&E),"TGEV Miller; PM 100 mg/kg, preventive or therapeutic treatment, 24 hpi",almost completely reversed TGEV-induced villous atrophy
same,effect of PM alone on the small intestine (H&E),TGEV Miller; PM treatment alone,did not have any impact on the small intestine
same,TGEV burden throughout the small intestine,"TGEV Miller; PM-therapy and PM-prevention groups vs control, 24 hpi, RT-qPCR and western blot",substantially lower
same,APN and P62 expression throughout the small intestine,TGEV Miller; [2],substantially lower
same,PIK3C3 expression in the small intestine,TGEV Miller; [2],significantly higher
same,body weight loss,TGEV Miller; [3],TGEV group lost more weight and had higher viral shedding than those receiving PM
same,"viral shedding (anal swabs, RT-qPCR)",TGEV Miller; [3],TGEV group lost more weight and had higher viral shedding than those receiving PM

# From paper PMC11784013, “Potassium molybdate blocks APN-dependent coronavirus entry by degrading receptor via PIK3C3-mediated autophagy” (Journal of Virology, 2024)
